Data: patent US20060251714A1, “Pharmaceutical formulations of amyloid inhibiting compounds” (priority 2005, published 2006)

How the values were obtained:
[1] = Example 12: Phase II pilot study in CAA patients with lobar cerebral hemorrhage, plasma pharmacokinetics; format: in vivo, human; conditions: for AUC(0-inf) / Cmax / AUC(0-t): human, plasma, oral; for AUC(0-inf): mean, only patients with estimable elimination rate constant
Description: (§1) In the following examples and elsewhere herein, terms are as defined below. The pharmacokinetic parameters were derived by non-compartmental analysis using WinNonlin® (Pharsight Corporation, Mountain View, Calif.) or SAS® for Windows® (SAS Institute Inc., Cary, N.C.).
AUCss—the area under the plasma concentrations versus time curve during a dosing interval at steady state.
A Phase II pilot study of the safety, tolerability and pharmacokinetics of 3-APS (formulation of Table 5 above) in patients with lobar cerebral hemorrhage related to Cerebral Amyloid Angiopathy (CAA). For doses at multiples of 50 mg, multiple 50 mg tables are administered. A multicenter, randomized, double-blind, and parallel designed study is conducted in the United States with 3-APS in patients who survived a lobar cerebral hemorrhage related to cerebral amyloid angiopathy (CAA). The main objective of this study is to assess the safety and tolerability of 3-APS and to characterize its pharmacokinetics in CAA patients.
A total of 24 patients who have had lobar cerebral hemorrhage are randomized to receive in a 1:1:1 ratio 3-APS 50, 100 or 150 mg BID for 12 weeks. A lumbar puncture is performed on an optional basis at Weeks 0 and 12 to assess the pharmacological effect of 3-APS on Aβ40, Aβ42 and tau concentrations in cerebrospinal fluid (CSF) and to measure the drug concentration in the CSF. Rating instruments (NIHSS, Barthel Index, ADAS-cog and EXIT25) are administered at Weeks 0 and 12 to evaluate the neurological and cognitive functions as well as the daily functioning.
For pharmacokinetic investigations, blood samples are collected from each patient prior to dosing and at specified time points through 12 h post-dose after the first dose (Week 0) and the last dose (Week 12). Blood samples are also collected prior to the first dose of the day during Week 2, 4 and 8 visits. CSF samples are obtained by lumbar puncture prior to dosing on Week 0 and approximately 5 hours post-dose on Week 12.

[2] = Example 7 Part I: single rising oral doses of NC-758, plasma pharmacokinetics in healthy young and elderly male volunteers; format: in vivo, human; conditions: for AUC∞: mean, only subjects with estimable elimination rate constant
Description: as §1
Cmax —the maximum observed plasma concentration.
Tmax—the time of occurrence of Cmax.
AUC0-t—the area under the plasma concentration versus time curve from time zero to the last sampling time at which concentrations were at or above the limit of quantification, calculated by the linear trapezoidal rule.
AUC∞—the area under the plasma concentrations versus time curve from time zero to infinity, calculated from AUC0-t+(Clast/λz), where Clast is the last observed quantifiable concentration and λz is the apparent terminal rate constant.
t1/2—the apparent terminal half-life, calculated from Ln2/λz.
Part I—The pharmacokinetic profile and the effect of food on single rising oral doses of 3-APS free acid, (modified-release enteric-coated tablet, as described in Table 3 above, hereinafter “NC-758”) in healthy male young (18-45 years) volunteers is determined. For doses at multiples of 100 mg, multiple 100 mg tables are administered. The pharmacokinetics of a single oral dose of NC-758 is also determined in a group of healthy male elderly (≧55 years old) volunteers. The test is a randomized, double-blind, placebo-controlled study to assess the pharmacokinetic profile of 4 single rising oral doses of NC-758 in healthy young (18-45 years) male subjects. Blood samples are collected during 24 h following dosing. Plasma concentrations of 3-APS are determined using a validated LC-MS/MS method.

[3] = Example 11: additional tests, crossing of the blood/brain barrier; format: in vivo, human; conditions: treated AD patients
CSF Aβ42 = test: Example 11: additional tests, CSF Aβ42 level and Aβ42/Aβ40 ratio in treated patients; format: in vivo, human
Procedure: FIG. 1 Change from Baseline CSF Aβ42 versus 3-APS doses
FIG. 2 Effect of 3-APS on CSF Aβ42/40 Ratio in Mild-to-Moderate AD Patients—Placebo vs. 150 mg BID
FIG. 3 Effect of 3-APS on CSF Aβ42/40 Ratio in Mild-to-Moderate AD Patients 0 and 50 mg 3-APS
FIG. 4 Effect of 3-APS on CSF Aβ42/40 Ratio in Mild-to-Moderate AD Patients 100 and 150 mg 3-APS

[4] = Example 9 Part II: food effect, single oral 100 mg 3-APS in elderly subjects, plasma pharmacokinetics; format: in vivo; conditions: both sexes, human, single oral 100 mg (Table 5 tablet), elderly male and female subjects; for AUC(0-inf) / Cmax / AUC(0-t): po, 100 mg; for AUC(0-inf): mean, only subjects with estimable elimination rate constant; for Cmax / AUC(0-t): n = 8, mean; for AUC(0-t): read-out: AUC0-Tlast
Procedure: as §1
Following single oral dosing of 100 mg 3-APS (modified-release coated formulation modified-release enteric-coated tablet as described in Table 5 above) to elderly (55 years or older) male and female subjects under fasted and fed (high fat) conditions, maximum plasma concentrations of 3-APS are attained at 5 and 10.5 h post-dose under fasted and fed conditions, respectively (Table 12A below and FIG. 5 showing the Mean Plasma Concentration-Time Profiles of 3-APS under Fasted and Fed Conditions following Single Oral Administration of 100 mg to Elderly Male and Female Subjects).

[5] = 200 mg dose, see Tables 9 and 10
[6] = single oral 100 mg NC-758 (Table 3 tablet), young (18-45 years) male subjects, fasted, n = 5, mean
[7] = single oral 200 mg NC-758 (Table 3 tablet), elderly (>55 years) male subjects, fasted, n = 6, mean
[8] = single oral 200 mg NC-758 (Table 3 tablet), young (18-45 years) male subjects, fasted, n = 6, mean
[9] = single oral 300 mg NC-758 (Table 3 tablet), young (18-45 years) male subjects, fasted, n = 5, mean
[10] = single oral 400 mg NC-758 (Table 3 tablet), young (18-45 years) male subjects, fasted, n = 3, mean

With `NCCCS(=O)(=O)O` [3-APS, 3-amino-1-propanesulfonic acid] the Tmax ([1]; 50 mg BID (Table 5 tablet), Week 0 (single dose), n = 8, median) was 4.5 h, the Tmax ([1]; 50 mg BID (Table 5 tablet), Week 12 (repeated), n = 8, median) was 4.4 h and the Tmax ([1]; 100 mg BID (Table 5 tablet), Week 12 (repeated), n = 6, median) was 5.15 h. For the same molecule, the Tmax ([1]; 150 mg BID (Table 5 tablet), Week 12 (repeated), n = 3, median) was 5.4 h, the AUC(0-inf) ([1]; 50 mg BID (Table 5 tablet), Week 0 (single dose)) was 1640 ng·h/mL and the Cmax ([1]; 50 mg, 50 mg BID (Table 5 tablet), Week 0 (single dose), n = 8, mean) was 346 ng/mL. For the same molecule, the AUC(0-t) ([1]; 50 mg, 50 mg BID (Table 5 tablet), Week 0 (single dose), n = 8, mean, read-out: AUC0-t) was 1280 ng·h/mL, the Cmax ([1]; 50 mg, 50 mg BID (Table 5 tablet), Week 12 (repeated), n = 8, mean) was 171 ng/mL and the AUC(0-t) ([1]; 50 mg, 50 mg BID (Table 5 tablet), Week 12 (repeated), n = 8, mean, read-out: AUC0-t (AUCss for Week 12)) was 947 ng·h/mL. It also gave an AUC(0-inf) ([1]; 100 mg BID (Table 5 tablet), Week 0 (single dose)) of 2780 ng·h/mL, a Cmax ([1]; 100 mg, 100 mg BID (Table 5 tablet), Week 0 (single dose), n = 7, mean) of 552 ng/mL and an AUC(0-t) ([1]; 100 mg, 100 mg BID (Table 5 tablet), Week 0 (single dose), n = 7, mean, read-out: AUC0-t) of 2630 ng·h/mL. The Cmax ([1]; 100 mg, 100 mg BID (Table 5 tablet), Week 12 (repeated), n = 6, mean) was 806 ng/mL, the AUC(0-t) ([1]; 100 mg, 100 mg BID (Table 5 tablet), Week 12 (repeated), n = 6, mean, read-out: AUC0-t (AUCss for Week 12)) was 3700 ng·h/mL and the AUC(0-inf) ([1]; 150 mg BID (Table 5 tablet), Week 0 (single dose)) was 3690 ng·h/mL. The Cmax ([1]; 150 mg, 150 mg BID (Table 5 tablet), Week 0 (single dose), n = 5, mean) was 857 ng/mL, the AUC(0-t) ([1]; 150 mg, 150 mg BID (Table 5 tablet), Week 0 (single dose), n = 5, mean, read-out: AUC0-t) was 3900 ng·h/mL and the Cmax ([1]; 150 mg, 150 mg BID (Table 5 tablet), Week 12 (repeated), n = 3, mean) was 1030 ng/mL. For the same molecule, the AUC(0-t) ([1]; 150 mg, 150 mg BID (Table 5 tablet), Week 12 (repeated), n = 3, mean, read-out: AUC0-t (AUCss for Week 12)) was 6750 ng·h/mL, the “AUC0-t greater in elderly subjects compared to young subjects” value [2, 5] was “approximately 70%” and the “Cmax greater in elderly subjects compared to young subjects” value [2, 5] was “approximately 70%”. For the same molecule, the “AUC∞” value ([2]; single oral 100 mg NC-758 (Table 3 tablet), young (18-45 years) male subjects, fasted) was 1421 ng·h/mL, the AUC0-Tlast [2, 6] was 1392 ng·h/mL and the Cmax [2, 6] was 410 ng/mL. For the same molecule, the AUC0-Tlast [2, 7] was 4882 ng·h/mL, the Cmax [2, 7] was 1094 ng/mL and the “AUC∞” value ([2]; single oral 200 mg NC-758 (Table 3 tablet), young (18-45 years) male subjects, fasted) was 2492 ng·h/mL. For the same molecule, the AUC0-Tlast [2, 8] was 2898 ng·h/mL, the Cmax [2, 8] was 661 ng/mL and the “AUC∞” value ([2]; single oral 300 mg NC-758 (Table 3 tablet), young (18-45 years) male subjects, fasted) was 4464 ng·h/mL. The AUC0-Tlast [2, 9] was 3999 ng·h/mL, the Cmax [2, 9] was 904 ng/mL and the AUC0-Tlast [2, 10] was 15966 ng·h/mL. The Cmax [2, 10] was 5367 ng/mL, the Tmax ([2]; single oral 400 mg NC-758 (Table 3 tablet), young (18-45 years) male subjects, fasted, n = 3, median) was 2 h and the “crossing of the blood/brain barrier” value [3] was “crossed the blood/brain barrier”. The “CSF Aβ42 levels” value (CSF Aβ42; treated AD patients, FIG. 1) was “reduced CSF Aβ42 levels”, the “ratio of Aβ42/Aβ40 (CSF)” value (CSF Aβ42; treated mild-to-moderate AD patients, FIGS. 2, 3 and 4) was “reduced the ratio of Aβ42/Aβ40” and the AUC(0-inf) ([4]; Fasting Arm) was 3290 ng·h/mL. It also gave a Cmax ([4]; Fasting Arm) of 931 ng/mL, an AUC(0-t) ([4]; Fasting Arm) of 3220 ng·h/mL and an AUC(0-inf) ([4]; Fed Arm (high fat)) of 2830 ng·h/mL. For the same molecule, the Cmax ([4]; Fed Arm (high fat)) was 671 ng/mL, the AUC(0-t) ([4]; Fed Arm (high fat)) was 3400 ng·h/mL and the Tmax ([4]; Fed Arm (high fat), n = 8, median) was 10.5 h.
